Test results: ChEMBL document CHEMBL3045085, “Structureactivity relationship study of growth inhibitory 2-styrylchromones against carcinoma cells” (2013)

How the values were obtained:
Assay type in all cases: functional
[1] = Growth inhibition of Homo sapiens (human) SKHep cells after 48 hr by MTT assay
[2] = Growth inhibition of Homo sapiens (human) H460 cells after 48 hr by MTT assay; details: NCI-H460, 48 h
[3] = tested on: OVCAR; test: Growth inhibition of Homo sapiens (human) OVCAR cells after 48 hr by MTT assay
[4] = tested on: HeLa; test: Growth inhibition of Homo sapiens (human) HeLa cells after 48 hr by MTT assay
[5] = tested on: AGS; test: Growth inhibition of Homo sapiens (human) AGS cells after 48 hr by MTT assay
[6] = tested on: SW-620; test: Growth inhibition of Homo sapiens (human) SW620 cells after 48 hr by MTT assay; details: SW-620, 48 h
[7] = tested on: PC-3; test: Growth inhibition of Homo sapiens (human) PC3 cells after 48 hr by MTT assay; details: PC-3, 48 h

Row | SMILES | GI50 [1] [nM] | GI50 [2] [nM] | GI50 [3] [nM] | GI50 [4] [nM] | GI50 [5] [nM] | GI50 [6] [nM] | GI50 [7] [nM]
1 | O=c1cc(/C=C/c2ccc3c(c2)OCO3)oc2ccccc12 | > 40000 | > 40000 | > 40000 | 14000 | > 40000 |  | 
2 | O=c1cc(/C=C/c2ccccc2)oc2ccccc12 | > 40000 | > 40000 | 21000 | 25000 | > 40000 |  | 
3 | COc1cccc2c1C(=O)c1c(O)c3c(c(O)c1C2=O)C[C@@](O)(C(=O)CO)C[C@@H]3O[C@H]1C[C@H](N)[C@H](O)[C@H](C)O1 [DOXORUBICIN] | 90 | 110 | 950 | 330 | 20 | 30 | 1760
